{"source": "patent US20260207722A1", "about": "“COMBINATION FOR TREATMENT OF AUTOIMMUNE DISEASES” (Bonsai Biotherapeutics AB, priority 2023, published 2026)", "system": "experimental autoimmune myasthenia gravis (EAMG)", "assay": "EAMG clinical score, rats treated with TOL2 and/or diclofenac (Example 2)", "type": "in vivo, rat", "settings": "treatment 40 days after EAMG induction; diclofenac 10 mg/kg ip; TOL2 500 μg iv alone, 250 μg iv in the combination; vs PBS-treated controls; FIG. 3A", "data": [{"smiles": "O=C(O)Cc1ccccc1Nc1c(Cl)cccc1Cl", "note": "[diclofenac]", "values": [{"measurement": "EAMG score", "result": "did not show any improvement"}]}]}
